“And” between values parts separate entries of the source, which are not always exact repeats. Equal values may be shown once.
Legend:
Assay in all cases: normalised viability (% of control), CellTiter-Blue; higher = more viable cells (about 100 = DMSO control)
Settings in all cases: incubation time: 72 h
MDA-MB-468 [1] = tested on: MDA-MB-468
Description: (§1)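 DSRT, CellTiter-Blue viability, 72 h incubation. Signal is normalised to DMSO and benzethonium chloride controls. Value is the normalised response at dose 3.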

Hs578T [2] = tested on: Hs578T
Description: as §1

BT-474 [3] = tested on: BT-474
Description: as §1

DU-4475 [4] = tested on: DU-4475
Description: as §1

HCC1937 [5] = tested on: HCC1937
Description: as §1

MDA-MB-436 [6] = tested on: MDA-MB-436
Description: as §1

CAL-120 [7] = tested on: CAL-120
Description: as §1

MFM-223 [8] = tested on: MFM-223
Description: as §1

CAL-85-1 [9] = tested on: CAL-85-1
Description: as §1

MDA-MB-453 = tested on: MDA-MB-453
How it was run: (§2)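 Normalised viability is given for a single listed concentration of the series. In 384-well plates, breast cancer cell lines were incubated 72 h with compound, then read with CellTiter-Blue (2 h, 37 °C) at 560/590 nm. Per-plate scaling set vehicle to 100 and a positive kill control to 0, with Z'-factor quality control.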

MDA-MB-468 [10] = tested on: MDA-MB-468; remark: listed apart in the source
How it was run: as §2

MDA-MB-231 = tested on: MDA-MB-231
How it was run: as §2

Hs578T [11] = tested on: Hs578T; remark: listed apart in the source
How it was run: as §2

HDQ-P1 = tested on: HDQ-P1
How it was run: as §2

HCC1599 = tested on: HCC1599
How it was run: as §2

BT-549 = tested on: BT-549
How it was run: as §2

BT-474 [12] = tested on: BT-474; remark: listed apart in the source
How it was run: as §2

CAL-51 = tested on: CAL-51
How it was run: as §2

DU-4475 [13] = tested on: DU-4475; remark: listed apart in the source
How it was run: as §2

HCC1143 = tested on: HCC1143
How it was run: as §2

HCC1937 [14] = tested on: HCC1937; remark: listed apart in the source
How it was run: as §2

MDA-MB-436 [15] = tested on: MDA-MB-436; remark: listed apart in the source
How it was run: as §2

SK-BR-3 = tested on: SK-BR-3
How it was run: as §2

CAL-120 [16] = tested on: CAL-120; remark: listed apart in the source
How it was run: as §2

MFM-223 [17] = tested on: MFM-223; remark: listed apart in the source
How it was run: as §2

CAL-148 = tested on: CAL-148
How it was run: as §2

CAL-85-1 [18] = tested on: CAL-85-1; remark: listed apart in the source
How it was run: as §2

Cc1cccc(-c2nn3c(c2-c2ccnc4ccc(C(N)=O)cc24)CCC3)n1
Settings | normalised viability [%]
BT-474 [3], 10 nM | 107
BT-474 [12], 1 nM | 120
BT-474 [12], 100 nM | 110
BT-474 [12], 1000 nM | 130
BT-549, 1 nM | 93.8
BT-549, 100 nM | 98.3
BT-549, 1000 nM | 109
CAL-51, 0.3 nM | 100
CAL-51, 3 nM | 93.8
CAL-51, 10 nM | 96.5
CAL-85-1 [9], 1 nM | 97.7
CAL-85-1 [18], 0.3 nM | 99.3
CAL-85-1 [18], 3 nM | 94.2
CAL-85-1 [18], 10 nM | 101
CAL-120 [7], 10 nM | 95.1
CAL-120 [16], 1 nM | 97.9
CAL-120 [16], 100 nM | 92.8
CAL-120 [16], 1000 nM | 106
CAL-148, 0.3 nM | 93.4
CAL-148, 3 nM | 95.2
CAL-148, 10 nM | 92.9
DU-4475 [4], 1 nM | 90.5
DU-4475 [13], 0.3 nM | 113
DU-4475 [13], 3 nM | 100
DU-4475 [13], 10 nM | 115
HCC1143, 1 nM | 98.3
HCC1143, 100 nM | 91
HCC1143, 1000 nM | 91.1
HCC1599, 1 nM | 86.8
HCC1599, 100 nM | 91.6
HCC1599, 1000 nM | 96.8
HCC1937 [5], 10 nM | 122
HCC1937 [14], 1 nM | 157
HCC1937 [14], 100 nM | 108
HCC1937 [14], 1000 nM | 126
HDQ-P1, 0.3 nM | 120
HDQ-P1, 3 nM | 117
HDQ-P1, 10 nM | 134
Hs578T [2], 10 nM | 96.2
Hs578T [11], 1 nM | 106
Hs578T [11], 100 nM | 112
Hs578T [11], 1000 nM | 89.9
MDA-MB-231, 1 nM | 109
MDA-MB-231, 100 nM | 128
MDA-MB-231, 1000 nM | 111
MDA-MB-436 [6], 10 nM | 127
MDA-MB-436 [15], 1 nM | 120
MDA-MB-436 [15], 100 nM | 96.9
MDA-MB-436 [15], 1000 nM | 128
MDA-MB-453, 0.3 nM | 122
MDA-MB-453, 3 nM | 108
MDA-MB-453, 10 nM | 97.2
MDA-MB-468 [1], 10 nM | 110
MDA-MB-468 [10], 1 nM | 106
MDA-MB-468 [10], 100 nM | 120
MDA-MB-468 [10], 1000 nM | 105
MFM-223 [8], 10 nM | 96.8
MFM-223 [17], 1 nM | 96.6
MFM-223 [17], 100 nM | 96.5
MFM-223 [17], 1000 nM | 93.6
SK-BR-3, 1 nM | 116
SK-BR-3, 100 nM | 101
SK-BR-3, 1000 nM | 103

CNC(=O)c1cc(Oc2ccc(NC(=O)Nc3ccc(Cl)c(C(F)(F)F)c3)cc2)ccn1 [Sorafenib]
Settings | normalised viability
BT-474 [3], 10 nM | 114% and 99.3%
BT-474 [12], 1000 nM | 130% and 106%
BT-549, 1 nM | 83.7% and 97.1%
BT-549, 100 nM | 99.5% and 82.8%
BT-549, 1000 nM | 94.5% and 80.4%
CAL-51, 0.3 nM | 112% and 107%
CAL-51, 3 nM | 108% and 99.3%
CAL-51, 10 nM | 98.3% and 96.8%
CAL-85-1 [9], 1 nM | 96.3% and 109%
CAL-85-1 [18], 0.3 nM | 98.3% and 99.7%
CAL-85-1 [18], 3 nM | 104% and 98.8%
CAL-85-1 [18], 10 nM | 105% and 108%
CAL-120 [7], 10 nM | 102% and 96%
CAL-120 [16], 1 nM | 106% and 91.3%
CAL-120 [16], 100 nM | 101% and 90.5%
CAL-120 [16], 1000 nM | 96.5% and 89%
CAL-148, 0.3 nM | 101% and 88%
CAL-148, 3 nM | 99.3% and 91.5%
CAL-148, 10 nM | 102% and 87.5%
DU-4475 [4], 1 nM | 118% and 131%
DU-4475 [13], 0.3 nM | 94.3% and 109%
DU-4475 [13], 3 nM | 101% and 95.7%
HCC1143, 1 nM | 99% and 84.3%
HCC1143, 100 nM | 105% and 85.9%
HCC1143, 1000 nM | 96.1% and 91.6%
HCC1599, 100 nM | 115% and 126%
HCC1599, 1000 nM | 100% and 112%
HCC1937 [5], 10 nM | 83.9% and 84.5%
HCC1937 [14], 100 nM | 106% and 100%
HCC1937 [14], 1000 nM | 82.3% and 82.8%
HDQ-P1, 0.3 nM | 107% and 97.1%
HDQ-P1, 3 nM | 98.5% and 88.8%
Hs578T [2], 10 nM | 90% and 86.3%
Hs578T [11], 1 nM | 126% and 102%
Hs578T [11], 100 nM | 109% and 123%
Hs578T [11], 1000 nM | 101% and 87.8%
MDA-MB-231, 1 nM | 103% and 90.2%
MDA-MB-231, 100 nM | 88.7% and 96.2%
MDA-MB-231, 1000 nM | 84.8% and 63.9%
MDA-MB-436 [6], 10 nM | 110% and 113%
MDA-MB-436 [15], 1 nM | 92.8% and 87%
MDA-MB-436 [15], 100 nM | 103% and 80.7%
MDA-MB-436 [15], 1000 nM | 91% and 88.2%
MDA-MB-453, 0.3 nM | 122% and 105%
MDA-MB-453, 3 nM | 97.2% and 99.1%
MDA-MB-453, 10 nM | 96.8% and 102%
MDA-MB-468 [1], 10 nM | 114% and 97.8%
MDA-MB-468 [10], 1 nM | 115% and 93.2%
MDA-MB-468 [10], 1000 nM | 102% and 112%
MFM-223 [8], 10 nM | 94.7% and 95%
MFM-223 [17], 1 nM | 94.9% and 108%
MFM-223 [17], 100 nM | 96.7% and 103%
MFM-223 [17], 1000 nM | 48.2% and 67.9%
SK-BR-3, 1 nM | 112% and 89.3%
SK-BR-3, 100 nM | 107% and 102%
SK-BR-3, 1000 nM | 110% and 108%

CCC/C=C/C=C/C(=O)O[C@H]1/C(=C/C(=O)OC)C[C@H]2C[C@H]([C@@H](C)O)OC(=O)C[C@H](O)C[C@@H]3C[C@H](OC(C)=O)C(C)(C)[C@](O)(C[C@@H]4C/C(=C/C(=O)OC)C[C@H](/C=C/C(C)(C)[C@]1(O)O2)O4)O3 [Bryostatin 1]
Settings | normalised viability [%]
BT-474 [3], 100 nM | 102
BT-474 [12], 10 nM | 109
BT-474 [12], 1000 nM | 109
BT-474 [12], 10000 nM | 102
BT-549, 0.1 nM | 100
BT-549, 10 nM | 87.9
BT-549, 100 nM | 100
CAL-51, 0.03 nM | 108
CAL-51, 0.3 nM | 104
CAL-51, 1 nM | 108
CAL-85-1 [9], 0.1 nM | 124
CAL-85-1 [18], 0.03 nM | 95.3
CAL-85-1 [18], 0.3 nM | 107
CAL-85-1 [18], 1 nM | 117
CAL-120 [7], 1 nM | 85.4
CAL-120 [16], 0.1 nM | 90.7
CAL-120 [16], 10 nM | 89.1
CAL-120 [16], 100 nM | 93.4
CAL-148, 0.03 nM | 91.6
CAL-148, 0.3 nM | 101
CAL-148, 1 nM | 88
DU-4475 [4], 0.1 nM | 92.1
DU-4475 [13], 0.03 nM | 92.7
DU-4475 [13], 0.3 nM | 79.2
DU-4475 [13], 1 nM | 91.2
HCC1143, 0.1 nM | 85.3
HCC1143, 10 nM | 80.5
HCC1143, 100 nM | 80.5
HCC1599, 0.1 nM | 112
HCC1599, 10 nM | 116
HCC1599, 100 nM | 115
HCC1937 [5], 100 nM | 103
HCC1937 [14], 10 nM | 108
HCC1937 [14], 1000 nM | 80.2
HCC1937 [14], 10000 nM | 103
HDQ-P1, 0.03 nM | 104
HDQ-P1, 0.3 nM | 106
HDQ-P1, 1 nM | 107
Hs578T [2], 1 nM | 63
Hs578T [11], 0.1 nM | 95.1
Hs578T [11], 10 nM | 97
Hs578T [11], 100 nM | 106
MDA-MB-231, 10 nM | 101
MDA-MB-231, 1000 nM | 82.8
MDA-MB-231, 10000 nM | 90.2
MDA-MB-436 [6], 1 nM | 126
MDA-MB-436 [15], 0.1 nM | 110
MDA-MB-436 [15], 10 nM | 103
MDA-MB-436 [15], 100 nM | 127
MDA-MB-453, 0.03 nM | 105
MDA-MB-453, 0.3 nM | 95
MDA-MB-453, 1 nM | 94.8
MDA-MB-468 [1], 100 nM | 101
MDA-MB-468 [10], 10 nM | 99.6
MDA-MB-468 [10], 1000 nM | 104
MDA-MB-468 [10], 10000 nM | 94.4
MFM-223 [8], 1 nM | 98.7
MFM-223 [17], 0.1 nM | 97
MFM-223 [17], 10 nM | 91.2
MFM-223 [17], 100 nM | 94.6
SK-BR-3, 10 nM | 95
SK-BR-3, 1000 nM | 67
SK-BR-3, 10000 nM | 61.4
